Biological target: protease K-resistance prion protein (PrP^Sc) in ScN2a cells (Mus musculus, UniProt P04925)
Type: cell-based
Conditions: 6 mM HFIP for 24 hours, protease K 10 μg/ml 37° C. 30 minutes, Western blotting, FIG. 2 #5 to #8

## OC(C(F)(F)F)C(F)(F)F [HFIP, 1,1,1,3,3,3-hexafluoro-2-propanol]
  resistance of prion protein to protease K: resistance to protease K was reduced
